Measurements taken from PubChem BioAssay AID328 (DTP/NCI, 2004).
Several values for one entry are separate records, joined by “and”; a condition that tells them apart may be missing. Equal values may be shown once. Toxic doses and inconclusive results are not listed.

Tested on: BDF1 mice, P388 leukemia ip, median survival T/C
Assay: NCI In Vivo Anticancer Drug Screen. Data for tumor model P388 Leukemia (intraperitoneal) in B6D2F1 (BDF1) mice
Settings: endpoint: median survival time, higher = longer survival
In short: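 Vehicle-dosed animals serve as the reference; survival of compound-dosed, tumour-implanted mice is divided by it.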

[1] = dose: 100.0 mg/kg/injection, schedule: Q01DX009 (ip), vehicle: Klucel (hydroxypropylcellulose) (HPC)
[2] = dose: 100.0 mg/kg/injection, schedule: Q04DX003 (ip), vehicle: Klucel (hydroxypropylcellulose) (HPC)
[3] = dose: 200.0 mg/kg/injection, schedule: Q01DX009 (ip), vehicle: Klucel (hydroxypropylcellulose) (HPC)
[4] = dose: 200.0 mg/kg/injection, schedule: Q04DX003 (ip), vehicle: Klucel (hydroxypropylcellulose) (HPC)
[5] = dose: 400.0 mg/kg/injection, schedule: Q01DX009 (ip), vehicle: Klucel (hydroxypropylcellulose) (HPC)
[6] = dose: 400.0 mg/kg/injection, schedule: Q04DX003 (ip), vehicle: Klucel (hydroxypropylcellulose) (HPC)
[7] = dose: 100.0 mg/kg/injection, schedule: Q01DX009 (ip), vehicle: saline with Tween-80
[8] = dose: 200.0 mg/kg/injection, schedule: Q01DX009 (ip), vehicle: saline with Tween-80
[9] = dose: 100.0 mg/kg/injection, schedule: Q04DX003 (ip), vehicle: saline
[10] = dose: 200.0 mg/kg/injection, schedule: Q04DX003 (ip), vehicle: saline
[11] = dose: 50.0 mg/kg/injection, schedule: Q01DX009 (ip), vehicle: saline with Tween-80
[12] = dose: 12.5 mg/kg/injection, schedule: Q01DX009 (ip), vehicle: saline
[13] = dose: 25.0 mg/kg/injection, schedule: Q01DX009 (ip), vehicle: saline
[14] = dose: 25.0 mg/kg/injection, schedule: Q04DX003 (ip), vehicle: saline
[15] = dose: 50.0 mg/kg/injection, schedule: Q01DX009 (ip), vehicle: saline
[16] = dose: 100.0 mg/kg/injection, schedule: Q01DX009 (ip), vehicle: saline
[17] = dose: 200.0 mg/kg/injection, schedule: Q01DX009 (ip), vehicle: saline

With O=C(Nc1ccc(Nc2ccncc2)cc1)c1ccc(Nc2ccnc3ccc([N+](=O)[O-])cc23)cc1 the T/C [1] was 90 % of control, the T/C [2] was 100 % of control and the T/C [3] was 90 % of control. The T/C [4] was 100 % of control, the T/C [5] was 95 % of control and the T/C [6] was 90 % of control.

With CC(=O)N/N=C(/C)C(=O)O the T/C (dose: 12.5 mg/kg/injection, schedule: Q01DX009 (ip), vehicle: water) was 93 % of control and 102 % of control and 114 % of control, the T/C (dose: 12.5 mg/kg/injection, schedule: Q04DX003 (ip), vehicle: water) was 95 % of control and the T/C (dose: 25.0 mg/kg/injection, schedule: Q04DX003 (ip), vehicle: water) was 100 % of control. The T/C (dose: 50.0 mg/kg/injection, schedule: Q04DX003 (ip), vehicle: water) was 100 % of control.

In the case of CC1(C)CC(=O)N/C1=C\C1NC(=O)CC1(C)C (centres undefined), the T/C [7] is reported as 104 % of control and the T/C [8] is reported as 109 % of control.

For COCOS(C)(=O)=O, the T/C [9] was 95 % of control and the T/C [10] was 120 % of control.

For O=C1NC(=O)C(=Cc2cc3c(cc2Br)OCO3)C(=O)N1, the T/C (dose: 75.0 mg/kg/injection, schedule: Q01DX009 (ip), vehicle: saline with Tween-80) was 123 % of control, the T/C [7] was 124 % of control and the T/C (dose: 150.0 mg/kg/injection, schedule: Q01DX009 (ip), vehicle: saline with Tween-80) was 120 % of control.

With COC(OC)c1cc(=O)[nH]c(=S)[nH]1 the T/C (dose: 100.0 mg/kg/injection, schedule: Q01DX001 (ip), vehicle: Klucel (hydroxypropylcellulose) (HPC)) was 100 % of control, the T/C (dose: 200.0 mg/kg/injection, schedule: Q01DX001 (ip), vehicle: Klucel (hydroxypropylcellulose) (HPC)) was 109 % of control and the T/C (dose: 400.0 mg/kg/injection, schedule: Q01DX001 (ip), vehicle: Klucel (hydroxypropylcellulose) (HPC)) was 90 % of control.

For CCCCCCCCC(C(O)c1ccccc1)C(O)(C(F)(F)F)C(F)(F)F (centres undefined), the T/C (dose: 100.0 mg/kg/injection, schedule: Q04DX003 (ip), vehicle: other) was 90 % of control, the T/C (dose: 200.0 mg/kg/injection, schedule: Q04DX003 (ip), vehicle: other) was 95 % of control and the T/C (dose: 400.0 mg/kg/injection, schedule: Q04DX003 (ip), vehicle: other) was 115 % of control.

For CC(=O)Nc1ccc(OC(C)=O)cc1C=O, the T/C (dose: 50.0 mg/kg/injection, schedule: Q04DX002 (ip), vehicle: saline with Tween-80) was 111 % of control, the T/C (dose: 100.0 mg/kg/injection, schedule: Q04DX002 (ip), vehicle: saline with Tween-80) was 98 % of control and the T/C (dose: 200.0 mg/kg/injection, schedule: Q04DX002 (ip), vehicle: saline with Tween-80) was 89 % of control.

CC(=O)OCC1OC(N=[N+]=[N-])C(OC(C)=O)C(OC(C)=O)C1OC(C)=O (centres undefined) was tested, and the T/C [11] was 93 % of control, the T/C [7] was 108 % of control and the T/C [8] was 99 % of control.

With O=[N+]([O-])c1ccc(N=N/C(Cc2ccccc2)=N\Nc2ccccc2)cc1 the T/C [1] was 100 % of control and the T/C [3] was 100 % of control.

O=C1OC(c2ccccc2)=C/C1=C/c1ccccc1O was tested, and the T/C (dose: 25.0 mg/kg/injection, schedule: Q01DX009 (ip), vehicle: saline with Tween-80) was 109 % of control, the T/C [11] was 91 % of control and the T/C (dose: 50.0 mg/kg/injection, schedule: Q04DX003 (ip), vehicle: saline with Tween-80) was 104 % of control. For the same compound, the T/C [7] was 97 % of control, the T/C (dose: 100.0 mg/kg/injection, schedule: Q04DX003 (ip), vehicle: saline with Tween-80) was 109 % of control and the T/C [8] was 97 % of control and 118 % of control. For the same compound, the T/C (dose: 200.0 mg/kg/injection, schedule: Q04DX003 (ip), vehicle: saline with Tween-80) was 116 % of control, the T/C (dose: 300.0 mg/kg/injection, schedule: Q01DX009 (ip), vehicle: saline with Tween-80) was 108 % of control and the T/C (dose: 400.0 mg/kg/injection, schedule: Q01DX009 (ip), vehicle: saline with Tween-80) was 113 % of control and 124 % of control. The T/C (dose: 400.0 mg/kg/injection, schedule: Q04DX003 (ip), vehicle: saline with Tween-80) was 114 % of control and the T/C (dose: 500.0 mg/kg/injection, schedule: Q01DX009 (ip), vehicle: saline with Tween-80) was 122 % of control.

O=c1cc(-c2ccccc2)nc2ccccn12 was tested, and the T/C (dose: 12.5 mg/kg/injection, schedule: Q01DX001 (ip), vehicle: saline with Tween-80) was 109 % of control, the T/C (dose: 25.0 mg/kg/injection, schedule: Q01DX001 (ip), vehicle: saline with Tween-80) was 104 % of control and the T/C (dose: 50.0 mg/kg/injection, schedule: Q01DX001 (ip), vehicle: saline with Tween-80) was 123 % of control.

For Cc1nc2ccccc2nc1CI, the T/C (dose: 2.9 mg/kg/injection, schedule: Q01DX009 (ip), vehicle: saline) was 110 % of control, the T/C (dose: 4.5 mg/kg/injection, schedule: Q01DX009 (ip), vehicle: saline) was 120 % of control and the T/C (dose: 10.0 mg/kg/injection, schedule: Q04DX003 (ip), vehicle: saline) was 115 % of control. The T/C (dose: 17.0 mg/kg/injection, schedule: Q01DX009 (ip), vehicle: saline) was 100 % of control and 116 % of control, the T/C (dose: 20.0 mg/kg/injection, schedule: Q04DX003 (ip), vehicle: saline) was 110 % of control and the T/C (dose: 26.0 mg/kg/injection, schedule: Q01DX009 (ip), vehicle: saline) was 110 % of control. The T/C (dose: 30.0 mg/kg/injection, schedule: Q01DX001 (ip), vehicle: Klucel (hydroxypropylcellulose) (HPC)) was 88 % of control, the T/C (dose: 40.0 mg/kg/injection, schedule: Q01DX009 (ip), vehicle: saline) was 100 % of control and 116 % of control and the T/C (dose: 40.0 mg/kg/injection, schedule: Q04DX003 (ip), vehicle: saline) was 110 % of control.

For CCCCCCCC[N+](C)(C)CCSCC[N+](C)(C)CCCCCCCC, the T/C (dose: 12.5 mg/kg/injection, schedule: Q01DX009 (ip), vehicle: saline with Tween-80) was 109 % of control.

CC(O)(CCCCCCCC(C)(O)c1ccccc1)c1ccccc1 (centres undefined) was tested, and the T/C (dose: 100.0 mg/kg/injection, schedule: Q01DX001 (ip), vehicle: saline with Tween-80) was 100 % of control, the T/C (dose: 200.0 mg/kg/injection, schedule: Q01DX001 (ip), vehicle: saline with Tween-80) was 100 % of control and the T/C (dose: 400.0 mg/kg/injection, schedule: Q01DX001 (ip), vehicle: saline with Tween-80) was 100 % of control.

CNC(C)Cc1ccccc1OC (centres undefined) was tested, and the T/C [12] was 89 % of control, the T/C [13] was 89 % of control and the T/C [14] was 88 % of control. For the same compound, the T/C [15] was 92 % of control and the T/C (dose: 50.0 mg/kg/injection, schedule: Q04DX003 (ip), vehicle: saline) was 92 % of control.

With S=c1[nH]c2ccccc2s1.[Zn+2] the T/C [11] was 98 % of control, the T/C [7] was 100 % of control and the T/C [8] was 99 % of control.

With O=c1[nH]cnc2ccnn12 the T/C [13] was 103 % of control, the T/C [15] was 100 % of control and the T/C (dose: 75.0 mg/kg/injection, schedule: Q01DX009 (ip), vehicle: saline) was 101 % of control. The T/C [16] was 100 % of control and the T/C [17] was 90 % of control.

For C#CCOC(=O)Nc1cccc2ccccc12, the T/C [1] was 100 % of control, the T/C [2] was 100 % of control and the T/C [3] was 110 % of control. The T/C [4] was 100 % of control, the T/C [5] was 120 % of control and the T/C [6] was 109 % of control.

O=C(NC(Cl)=C(Cl)Cl)P(=O)(c1ccccc1)c1ccccc1 was tested, and the T/C (dose: 50.0 mg/kg/injection, schedule: Q01DX005 (ip), vehicle: saline with Tween-80) was 92 % of control, the T/C (dose: 100.0 mg/kg/injection, schedule: Q01DX005 (ip), vehicle: saline with Tween-80) was 111 % of control and the T/C (dose: 200.0 mg/kg/injection, schedule: Q01DX005 (ip), vehicle: saline with Tween-80) was 95 % of control.

With COc1c2ccoc2nc2c(OC)c3c(cc12)OCO3 the T/C [12] was 109 % of control, the T/C [13] was 107 % of control and the T/C [15] was 109 % of control.

With Cc1ccc(S(=O)(=O)c2ccc(Sc3cccc[n+]3[O-])c3no[n+]([O-])c23)cc1 the T/C (dose: 15.0 mg/kg/injection, schedule: Q01DX009 (ip), vehicle: saline with Tween-80) was 97 % of control, the T/C (dose: 30.0 mg/kg/injection, schedule: Q01DX009 (ip), vehicle: saline with Tween-80) was 114 % of control and the T/C (dose: 60.0 mg/kg/injection, schedule: Q01DX009 (ip), vehicle: saline with Tween-80) was 90 % of control.

For CC(=O)Oc1ccc(OC(C)=O)c2c1CC(C)=C(C)C2, the T/C [15] was 107 % of control, the T/C [16] was 113 % of control and the T/C [9] was 109 % of control. The T/C [17] was 109 % of control, the T/C [10] was 116 % of control and the T/C (dose: 400.0 mg/kg/injection, schedule: Q01DX009 (ip), vehicle: saline) was 118 % of control.

For O=P(N1CC1)(N1CC1)N1CC2CCC(CC2)C1, the T/C [14] was 163 % of control and the T/C (dose: 37.5 mg/kg/injection, schedule: Q04DX003 (ip), vehicle: saline) was 236 % of control.
